This passage reports melting point and IC50 results from patent publication US8609847B2, “Dihydroquinolinone derivatives” (Taisho Pharmaceutical Co., Ltd, priority 2009, dated 2013).

Series [1] has as its target T1, human H3 receptor (Homo sapiens, UniProt Q9Y5N1).
T1 construct: purchased Perkin Elmer ES-392-M400UA; host or cells: CHO-K1 cells (recombinant expression), membrane preparation
The series is described as follows: [35S]GTP-γ-S Binding Test. Particulars: 50% inhibition of [35S]GTP-γ-S (0.2 nM) binding in presence of 10 nM R(−)-α-methylhistamine; human H3 receptor membrane preparation. In kind it is biochemical. As to the method: The same human H3 receptor membrane preparation as used in Test Example 1 (7.5 μg protein/200 μl), 3 μM GDP, 10 nM R(−)-α-methylhistamine and a test compound were reacted at 30° C. for 20 minutes. After completion of the reaction, [^35S]GTP-γ-S (0.2 nM) was added and reacted for an additional 30 minutes. After completion of the reaction, the reaction mixture was subjected to suction filtration through a glass filter (GF/C). The glass filter was washed three times with 20 mM HEPES washing solution (pH 7.4) containing 100 mM sodium chloride and 3 mM magnesium chloride. After washing, the glass filter was dried and a scintillator was added thereto, followed by measurement of radioactivity on the filter using a liquid scintillation counter. Binding of [^35S]GTP-γ-S in the absence of R(−)-α-methylhistamine was defined as non-specific binding, and the difference between total binding in the presence of R(−)-α-methylhistamine and non-specific binding was defined as specific binding of [^35S]GTP-γ-S. Fixed concentrations of [^35S]GTP-γ-S (0.2 nM) and R(−)-α-methylhistamine (10 nM) were reacted under the above conditions with each test drug at various concentrations to obtain an inhibition curve. The inhibition curve was used to determine the concentration (IC50) of each test drug required for 50% inhibition of [^35S]GTP-γ-S binding.
Background: Binding of GTPγS marks nucleotide exchange on a G protein.

In series [2] the target is T1, human H3 receptor. The series is described as follows: H3 Receptor Binding Test. Particulars: 50% inhibition of R(−)-α-methyl[3H]histamine (1 nM) binding; membrane preparation of human H3 receptor-expressing CHO-K1 cells. As for the experimental part:
A membrane preparation of human H3 receptor-expressing CHO-K1 cells (Perkin Elmer, ES-392-M400UA, 15 μg protein/200 μl), R(−)-α-methyl[^3H]histamine (Amersham, TRK-1017, specific activity: 1.74 TBq/mmol, 1 nM) and a test drug were reacted at room temperature for 1 hour. After completion of the reaction, the reaction mixture was subjected to suction filtration through a 0.3% polyethyleneimine-treated glass filter (GF/C). The glass filter was washed five times with 50 mM Tris-HCl washing solution (pH 7.4) containing 5 mM EDTA. After washing, the glass filter was dried and a scintillator was added thereto, followed by measurement of radioactivity on the filter using a liquid scintillation counter.
Binding of R(−)-α-methyl[^3H]histamine in the presence of 10 μM R(−)-α-methylhistamine was defined as non-specific binding, and the difference between total binding and non-specific binding of R(−)-α-methyl[^3H]histamine was defined as specific binding of R(−)-α-methyl[^3H]histamine. A fixed concentration (1 nM) of R(−)-α-methyl[^3H]histamine was reacted under the above conditions with each test drug at various concentrations to obtain an inhibition curve. The inhibition curve was used to determine the concentration (IC50) of each test drug required for 50% inhibition of R(−)-α-methyl[^3H]histamine binding.

T1 sequence (Q9Y5N1 whole entry): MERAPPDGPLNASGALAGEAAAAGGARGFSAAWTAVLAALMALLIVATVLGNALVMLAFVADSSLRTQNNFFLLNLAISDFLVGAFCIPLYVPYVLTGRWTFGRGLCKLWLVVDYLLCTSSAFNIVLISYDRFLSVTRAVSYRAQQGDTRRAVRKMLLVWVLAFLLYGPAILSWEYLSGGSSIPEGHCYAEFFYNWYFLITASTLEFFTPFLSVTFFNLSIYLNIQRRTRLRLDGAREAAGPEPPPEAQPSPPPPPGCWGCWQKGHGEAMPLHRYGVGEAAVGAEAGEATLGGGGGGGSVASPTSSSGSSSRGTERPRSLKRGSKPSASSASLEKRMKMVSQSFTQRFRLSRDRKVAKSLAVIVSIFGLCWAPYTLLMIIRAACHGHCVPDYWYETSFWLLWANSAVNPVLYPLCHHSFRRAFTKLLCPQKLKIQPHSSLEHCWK

Take `Cl.O=C1CCc2cc(OC3CCN(C4CCC4)CC3)ccc2N1c1ccc(F)cc1`: the melting point was more than 250 °C.

As to `C[C@@H]1CCCN1CCCOc1ccc2c(c1)CCC(=O)N2c1ccc(F)cc1` [Compound No. 6, 1-(4-fluorophenyl)-6-{3-[(2R)-2-methylpyrrolidin-1-yl]propoxy}-3,4-dihydroquinolin-2(1H)-one], the IC50 in series [1] worked out at 0.28 nM; in series [2] it was 1.1 nM. On to `C[C@@H]1CCCN1CCCOc1ccc2c(c1)CCC(=O)N2c1ccc(CN(C)C)cc1` [Compound No. 12, 1-{4-[(dimethylamino)methyl]phenyl}-6-{3-[(2R)-2-methylpyrrolidin-1-yl]propoxy}-3,4-dihydroquinolin-2(1H)-one], for which the IC50 in series [1] amounted to 0.21 nM; in series [2] it was 0.68 nM. Take `C[C@@H]1CCCN1CCCOc1ccc2c(c1)CCC(=O)N2c1ccc(C(=O)N(C)C)cc1` [Compound No. 13, N,N-dimethyl-4-[6-{3-[(2R)-2-methylpyrrolidin-1-yl]propoxy}-2-oxo-3,4-dihydroquinolin-1(2H)-yl]benzamide]: the values for the IC50 in series [1] and in series [2] were 0.62 nM and 8.3 nM, respectively.

For the molecule `O=C1CCc2cc(OC3CCN(C4CCC4)CC3)ccc2N1c1cnc2ccccc2c1` [Compound No. 58, 6-[(1-cyclobutylpiperidin-4-yl)oxy]-3,4-dihydro-2H-1,3′-biquinolin-2-one], the results for the IC50 in series [1] and in series [2] were 0.4 nM and 1.6 nM, respectively. For the molecule `O=C1CCc2cc(OC3CCN(C4CCC4)CC3)ccc2N1c1ccc(F)cc1` [Compound No. 60, 6-[(1-cyclobutylpiperidin-4-yl)oxy]-1-(4-fluorophenyl)-3,4-dihydroquinolin-2(1H)-one], the IC50 in series [1] is 0.23 nM; in series [2] it was 0.8 nM. The matching figures for `O=C1CCc2cc(OC3CCN(C4CCC4)CC3)ccc2N1c1cccc(F)c1` [Compound No. 69, 6-[(1-cyclobutylpiperidin-4-yl)oxy]-1-(3-fluorophenyl)-3,4-dihydroquinolin-2(1H)-one]: 0.2 nM and 0.65 nM. In the same order, the values of `O=C1CCc2cc(OC3CCN(C4CCC4)CC3)ccc2N1c1cncc(F)c1` [Compound No. 71, 6-[(1-cyclobutylpiperidin-4-yl)oxy]-1-(5-fluoropyridin-3-yl)-3,4-dihydroquinolin-2(1H)-one] are 0.26 nM and 1.4 nM.

Take `O=C1CCc2cc(OC3CCN(C4CCC4)CC3)ccc2N1c1ccccc1` [Compound No. 72, 6-[(1-cyclobutylpiperidin-4-yl)oxy]-1-phenyl-3,4-dihydroquinolin-2(1H)-one]: the results for the IC50 in series [1] and in series [2] were 0.16 nM and 0.6 nM, respectively. As for `N#Cc1ccc(N2C(=O)CCc3cc(OC4CCN(C5CCC5)CC4)ccc32)cc1` [Compound No. 73, 4-{6-[(1-cyclobutylpiperidin-4-yl)oxy]-2-oxo-3,4-dihydroquinolin-1(2H)-yl}benzonitrile], the IC50 in series [1] worked out at 0.23 nM; in series [2] it was 1 nM.

As for `N#Cc1cccc(N2C(=O)CCc3cc(OC4CCN(C5CCC5)CC4)ccc32)c1` [Compound No. 74, 3-{6-[(1-cyclobutylpiperidin-4-yl)oxy]-2-oxo-3,4-dihydroquinolin-1(2H)-yl}benzonitrile], the IC50 in series [2] was 1.3 nM. `CC(C)N1CCC(Oc2ccc3c(c2)CCC(=O)N3c2ccc(F)cc2)CC1` [Compound No. 75, 1-(4-fluorophenyl)-6-{[1-(propan-2-yl)piperidin-4-yl]oxy}-3,4-dihydroquinolin-2(1H)-one]: the IC50 in series [2] is 1.4 nM.

On to `O=C1CCc2cc(OC3CCN(CC4CC4)CC3)ccc2N1c1ccc(F)cc1` [Compound No. 76, 6-{[1-(cyclopropylmethyl)piperidin-4-yl]oxy}-1-(4-fluorophenyl)-3,4-dihydroquinolin-2(1H)-one], for which, in series [2], the IC50 was 9.8 nM. As for `O=C1CCc2cc(OC3CCN(C4CC4)CC3)ccc2N1c1ccc(F)cc1` [Compound No. 77, 6-[(1-cyclopropylpiperidin-4-yl)oxy]-1-(4-fluorophenyl)-3,4-dihydroquinolin-2(1H)-one], the IC50 in series [2] came to 2.1 nM. For `O=C1CCc2cc(OCCCN3CCCC3)ccc2N1c1ccc(F)cc1` [Compound No. 78, 1-(4-fluorophenyl)-6-[3-(pyrrolidin-1-yl)propoxy]-3,4-dihydroquinolin-2(1H)-one], the IC50 in series [2] was found to be 13 nM. On the same count and under the same terms, to `O=C1CCc2cc(OCCCN3CCCC3)ccc2N1c1cccc(F)c1` [Compound No. 79, 1-(3-fluorophenyl)-6-[3-(pyrrolidin-1-yl)propoxy]-3,4-dihydroquinolin-2(1H)-one] belongs 17 nM. The same measure, in the same setting: as for `O=C1CCc2cc(OCCCN3CCCC3)ccc2N1c1cc(F)cc(F)c1` [Compound No. 80, 1-(3,5-difluorophenyl)-6-[3-(pyrrolidin-1-yl)propoxy]-3,4-dihydroquinolin-2(1H)-one], the figure is 22 nM; as for `O=C1CCc2cc(OCCCN3CCCC3)ccc2N1c1ccc(F)c(F)c1` [Compound No. 81, 1-(3,4-difluorophenyl)-6-[3-(pyrrolidin-1-yl)propoxy]-3,4-dihydroquinolin-2(1H)-one], 18 nM; as for `O=C1CCc2cc(OCCCN3CCCCC3)ccc2N1c1ccc(F)cc1` [Compound No. 82, 1-(4-fluorophenyl)-6-[3-(piperidin-1-yl)propoxy]-3,4-dihydroquinolin-2(1H)-one], 9.1 nM. On to `CCN(CC)CCCOc1ccc2c(c1)CCC(=O)N2c1ccc(F)cc1` [Compound No. 83, 6-[3-(diethylamino)propoxy]-1-(4-fluorophenyl)-3,4-dihydroquinolin-2(1H)-one], for which the IC50 in series [2] came to 13 nM. For `C[C@@H]1CC[C@@H](C)N1CCCOc1ccc2c(c1)CCC(=O)N2c1ccc(F)cc1` [Compound No. 84, 6-{3-[(2R,5R)-2,5-dimethylpyrrolidin-1-yl]propoxy}-1-(4-fluorophenyl)-3,4-dihydroquinolin-2(1H)-one], the concentration for half-maximal inhibition (IC50) in series [2] worked out at 5 nM. Still for that read-out and setting: as for `C[C@@H]1CCCN1CCCOc1cc(Cl)c2c(c1)CCC(=O)N2c1ccc(F)cc1` [Compound No. 85, 8-chloro-1-(4-fluorophenyl)-6-{3-[(2R)-2-methylpyrrolidin-1-yl]propoxy}-3,4-dihydroquinolin-2(1H)-one], the figure is 11 nM; as for `Cc1cc(OCCCN2CCC[C@H]2C)cc2c1N(c1ccc(F)cc1)C(=O)CC2` [Compound No. 86, 1-(4-fluorophenyl)-8-methyl-6-{3-[(2R)-2-methylpyrrolidin-1-yl]propoxy}-3,4-dihydroquinolin-2(1H)-one], 12 nM.

As usually defined, the melting point is the temperature of the solid-liquid transition. As a reminder, the IC50 is the concentration at which inhibition is half-maximal.
